The subject of test [1] is HEK293. In words: inhibition of NOD1-driven NF-kB reporter – cell-based, luminescence, uHTS, primary screen (AID 1578). Format: functional. Conditions: Homo sapiens.
For test [2], the system named is HEK293. In words: cells. The test is classed as functional, cell-based. Conditions: Homo sapiens.
Test [3] concerns HEK293. In words: cells. Format: functional, cell-based. Conditions: Homo sapiens. This is another data set of the same source.
Test [4] deals with Nucleotide-binding oligomerization domain-containing protein 2 (Homo sapiens, UniProt Q9HC29). The test is described as follows: inhibition of NOD2-driven NF-kB reporter – cell-based, luminescence, uHTS, HEK293 (AID 1566). The test is classed as functional.
Nucleotide-binding oligomerization domain-containing protein 2, sequence (Q9HC29 whole entry, the tested form may be a part): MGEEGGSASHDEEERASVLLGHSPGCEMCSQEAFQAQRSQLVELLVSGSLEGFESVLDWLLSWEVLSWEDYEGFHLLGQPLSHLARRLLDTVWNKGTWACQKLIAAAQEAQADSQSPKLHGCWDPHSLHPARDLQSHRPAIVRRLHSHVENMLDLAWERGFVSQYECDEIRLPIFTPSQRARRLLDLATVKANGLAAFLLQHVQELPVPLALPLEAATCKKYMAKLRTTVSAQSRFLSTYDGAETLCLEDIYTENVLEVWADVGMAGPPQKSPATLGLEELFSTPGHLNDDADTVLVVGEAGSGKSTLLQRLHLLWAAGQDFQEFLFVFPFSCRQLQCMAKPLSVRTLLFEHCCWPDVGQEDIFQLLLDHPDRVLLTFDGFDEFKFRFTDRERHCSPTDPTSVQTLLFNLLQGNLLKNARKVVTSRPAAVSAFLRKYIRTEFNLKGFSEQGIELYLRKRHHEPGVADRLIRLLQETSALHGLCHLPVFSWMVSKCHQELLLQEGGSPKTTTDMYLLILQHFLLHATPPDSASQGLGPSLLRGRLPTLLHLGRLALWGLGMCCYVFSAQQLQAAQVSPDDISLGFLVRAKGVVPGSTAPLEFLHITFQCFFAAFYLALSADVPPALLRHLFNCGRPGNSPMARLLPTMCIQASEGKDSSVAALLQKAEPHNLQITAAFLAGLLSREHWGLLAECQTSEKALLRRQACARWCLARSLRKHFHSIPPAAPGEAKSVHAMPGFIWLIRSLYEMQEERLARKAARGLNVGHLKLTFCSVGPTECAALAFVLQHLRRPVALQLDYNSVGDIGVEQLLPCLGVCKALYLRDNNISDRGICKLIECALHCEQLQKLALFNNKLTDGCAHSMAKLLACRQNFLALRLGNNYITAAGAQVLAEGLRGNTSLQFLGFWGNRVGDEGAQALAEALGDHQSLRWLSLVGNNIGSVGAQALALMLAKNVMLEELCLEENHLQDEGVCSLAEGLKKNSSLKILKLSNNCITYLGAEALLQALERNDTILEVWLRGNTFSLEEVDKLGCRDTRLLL
In test [5] the test system is HEK293. In words: cells. Format: functional, cell-based. Conditions: Homo sapiens. The source holds these as a separate data set.
The target of another test is NS3 (Hepatitis C virus, UniProt A3EZJ3). In words: PubChem AID 2173. Also on record: species or system Hepacivirus hominis.
NS3, sequence (A3EZJ3 whole entry): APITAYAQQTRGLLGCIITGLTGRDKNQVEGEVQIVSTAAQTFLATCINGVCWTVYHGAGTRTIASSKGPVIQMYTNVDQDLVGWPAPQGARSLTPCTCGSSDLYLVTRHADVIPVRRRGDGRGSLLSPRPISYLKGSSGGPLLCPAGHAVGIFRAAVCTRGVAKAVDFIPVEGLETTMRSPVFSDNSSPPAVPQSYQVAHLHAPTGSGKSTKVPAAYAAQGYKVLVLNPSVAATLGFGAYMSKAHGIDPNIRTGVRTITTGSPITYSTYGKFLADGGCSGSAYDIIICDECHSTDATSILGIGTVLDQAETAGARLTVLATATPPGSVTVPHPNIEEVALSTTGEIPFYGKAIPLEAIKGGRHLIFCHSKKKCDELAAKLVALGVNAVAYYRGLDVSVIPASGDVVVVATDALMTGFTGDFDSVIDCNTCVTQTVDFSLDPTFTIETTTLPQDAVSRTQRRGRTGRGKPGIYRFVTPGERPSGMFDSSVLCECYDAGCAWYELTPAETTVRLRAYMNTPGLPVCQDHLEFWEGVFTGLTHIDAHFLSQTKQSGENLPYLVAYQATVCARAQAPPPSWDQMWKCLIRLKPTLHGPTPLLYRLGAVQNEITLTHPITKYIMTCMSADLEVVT
Test [6] has as its system Vero. The test is described as follows: viability of Vero cells under compound – cytotoxicity control for flavivirus capping enzyme inhibitors (AID 588742). Format: functional. Conditions: Chlorocebus sabaeus.
The next test has as its target Nonstructural protein 1 (Influenza A virus, UniProt Q194T2). The test is classed as functional, Influenza A virus (A/California/07/2009(H1N1)).
The test system of test [7] is Vero. In words: cells. Conditions: Chlorocebus sabaeus. The test is classed as functional.
Test [8] addresses Neurotensin receptor type 1 (Homo sapiens, UniProt P30989). The test is classed as functional.
A further test deals with Genome polyprotein (dengue virus type 2, UniProt P29990). In words: flavivirus cap methylation enzyme inhibition – biochemical, confirmation dose response, primary screen (AID 588689). Format: functional.
Genome polyprotein, sequence (P29990 2492-3391 limits assumed): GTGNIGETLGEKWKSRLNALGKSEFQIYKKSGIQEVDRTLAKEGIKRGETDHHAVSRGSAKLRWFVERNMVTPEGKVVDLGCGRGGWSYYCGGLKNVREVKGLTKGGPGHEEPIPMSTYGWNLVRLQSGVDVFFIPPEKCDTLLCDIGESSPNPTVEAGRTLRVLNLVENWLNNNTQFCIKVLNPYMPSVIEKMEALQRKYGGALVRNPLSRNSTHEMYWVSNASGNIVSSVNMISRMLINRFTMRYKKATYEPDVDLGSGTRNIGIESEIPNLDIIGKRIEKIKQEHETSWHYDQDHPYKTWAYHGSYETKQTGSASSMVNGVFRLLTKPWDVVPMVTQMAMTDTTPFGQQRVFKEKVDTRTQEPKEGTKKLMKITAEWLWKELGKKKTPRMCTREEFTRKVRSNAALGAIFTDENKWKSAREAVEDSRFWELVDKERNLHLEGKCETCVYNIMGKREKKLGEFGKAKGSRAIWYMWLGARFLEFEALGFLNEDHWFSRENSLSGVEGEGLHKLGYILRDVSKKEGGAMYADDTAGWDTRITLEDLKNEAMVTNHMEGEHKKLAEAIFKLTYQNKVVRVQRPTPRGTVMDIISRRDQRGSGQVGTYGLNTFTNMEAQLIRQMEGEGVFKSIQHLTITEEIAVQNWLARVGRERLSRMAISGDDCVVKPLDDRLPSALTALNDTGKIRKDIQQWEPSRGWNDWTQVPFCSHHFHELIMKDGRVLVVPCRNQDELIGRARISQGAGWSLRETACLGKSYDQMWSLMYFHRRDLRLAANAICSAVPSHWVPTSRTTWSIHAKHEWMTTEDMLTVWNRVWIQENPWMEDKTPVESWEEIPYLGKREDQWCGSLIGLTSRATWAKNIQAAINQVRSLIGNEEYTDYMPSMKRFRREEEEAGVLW
Test [9] can be described thus: Luminescence Cell-Based Dose Retest to Confirm Inhibitors of Cancer Stem Cells. [Related pubchem assays (depositor defined):AID2717, AID2721]. The test is classed as functional, Homo sapiens. Conditions: Homo sapiens.
In test [10] the target is T1, Ubiquitin-conjugating enzyme E2 N (Homo sapiens, UniProt P61088).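 Note: Dose-response confirmation in a TR-FRET assay detecting UBC13-driven polyubiquitin chain formation, inhibition measured.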
T1 sequence (P61088 whole entry): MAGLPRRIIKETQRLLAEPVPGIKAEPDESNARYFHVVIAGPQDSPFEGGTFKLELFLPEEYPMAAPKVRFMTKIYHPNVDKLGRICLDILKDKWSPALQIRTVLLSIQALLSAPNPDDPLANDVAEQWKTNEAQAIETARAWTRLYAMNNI
Format: functional.

For test [11], the target named is T2, Type-1 angiotensin II receptor (Homo sapiens, UniProt P30556).
T2 sequence (P30556 whole entry): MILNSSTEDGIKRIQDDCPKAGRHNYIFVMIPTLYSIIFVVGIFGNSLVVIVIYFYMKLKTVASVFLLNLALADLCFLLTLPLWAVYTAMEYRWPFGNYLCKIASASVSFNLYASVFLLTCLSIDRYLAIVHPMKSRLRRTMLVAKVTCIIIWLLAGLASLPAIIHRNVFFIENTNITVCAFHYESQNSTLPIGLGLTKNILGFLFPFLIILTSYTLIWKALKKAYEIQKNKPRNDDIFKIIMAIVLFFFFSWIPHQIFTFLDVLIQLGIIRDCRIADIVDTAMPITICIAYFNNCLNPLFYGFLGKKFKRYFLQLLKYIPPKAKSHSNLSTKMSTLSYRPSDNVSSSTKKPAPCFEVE
In words: antagonism of angiotensin II type 1 receptor – cell-based, uHTS hits, selectivity assay for APJ receptor antagonist project, dose response (AID 463214).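 Note: antagonist potency against angiotensin II stimulated AT1 response.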 Format: functional.

The next test addresses Beta-galactosidase (Escherichia coli, UniProt Q8VNN2). The test is described as follows: PubChem AID 485352. The test is classed as functional.
The nature of test [12]: A Cell Based Secondary Assay To Explore Cytotoxicity of Compounds that Sensitize Mycobacterium Tuberculosis to Beta-Lactam Antibiotics. The test is classed as functional.
In test [13] the target is Cyclin-dependent kinase 5/CDK5 activator 1 (Homo sapiens, UniProt Q00535). The test is described as follows: blockade of human CDK5 activity – biochemical, cherry-picked samples, set 2, dose response (AID 504545).
Test [14] addresses Luciferin 4-monooxygenase (Photinus pyralis, UniProt P08659). The test is described as follows: inhibition of purified Photinus pyralis luciferase – biochemical, luminescence, dose response (AID 1891).
Test [15] deals with T3, Short transient receptor potential channel 4 (Mus musculus, UniProt Q9QUQ5).
T3 sequence (Q9QUQ5 whole entry): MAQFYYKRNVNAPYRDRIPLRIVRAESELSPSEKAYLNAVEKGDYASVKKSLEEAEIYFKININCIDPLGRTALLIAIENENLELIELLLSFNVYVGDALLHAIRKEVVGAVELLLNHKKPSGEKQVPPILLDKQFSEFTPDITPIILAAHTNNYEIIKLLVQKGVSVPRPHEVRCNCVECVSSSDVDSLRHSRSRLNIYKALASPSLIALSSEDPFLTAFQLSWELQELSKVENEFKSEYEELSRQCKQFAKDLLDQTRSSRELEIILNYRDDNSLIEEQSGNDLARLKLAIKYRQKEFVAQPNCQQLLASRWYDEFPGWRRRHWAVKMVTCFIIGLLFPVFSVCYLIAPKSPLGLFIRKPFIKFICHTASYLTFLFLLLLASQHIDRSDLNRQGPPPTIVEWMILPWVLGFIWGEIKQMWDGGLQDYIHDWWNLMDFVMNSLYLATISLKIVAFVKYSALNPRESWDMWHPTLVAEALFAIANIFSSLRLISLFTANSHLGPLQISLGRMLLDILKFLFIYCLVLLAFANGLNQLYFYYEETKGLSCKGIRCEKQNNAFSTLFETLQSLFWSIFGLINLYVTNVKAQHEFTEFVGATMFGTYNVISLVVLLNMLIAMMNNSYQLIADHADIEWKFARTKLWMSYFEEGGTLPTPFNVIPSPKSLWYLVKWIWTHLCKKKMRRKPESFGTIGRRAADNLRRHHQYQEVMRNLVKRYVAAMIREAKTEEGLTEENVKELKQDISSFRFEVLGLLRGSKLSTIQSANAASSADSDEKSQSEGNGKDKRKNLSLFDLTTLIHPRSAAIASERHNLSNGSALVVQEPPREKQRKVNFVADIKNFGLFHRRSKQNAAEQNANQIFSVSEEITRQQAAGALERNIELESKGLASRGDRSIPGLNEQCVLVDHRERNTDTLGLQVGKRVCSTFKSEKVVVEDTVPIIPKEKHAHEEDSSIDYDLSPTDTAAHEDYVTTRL
The test is described as follows: block of DAMGO-driven TRPC4 calcium entry – cell-based, HEK293 TRPC4/mu-opioid, Fluo-4 calcium, dose response (AID 434942).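 Note: potency of inhibitors blocking the TRPC4 calcium response.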 Format: functional.

Test [16] has as its target T4, Histone-lysine N-methyltransferase NSD2 (Homo sapiens, UniProt O96028).
T4 sequence (O96028 whole entry): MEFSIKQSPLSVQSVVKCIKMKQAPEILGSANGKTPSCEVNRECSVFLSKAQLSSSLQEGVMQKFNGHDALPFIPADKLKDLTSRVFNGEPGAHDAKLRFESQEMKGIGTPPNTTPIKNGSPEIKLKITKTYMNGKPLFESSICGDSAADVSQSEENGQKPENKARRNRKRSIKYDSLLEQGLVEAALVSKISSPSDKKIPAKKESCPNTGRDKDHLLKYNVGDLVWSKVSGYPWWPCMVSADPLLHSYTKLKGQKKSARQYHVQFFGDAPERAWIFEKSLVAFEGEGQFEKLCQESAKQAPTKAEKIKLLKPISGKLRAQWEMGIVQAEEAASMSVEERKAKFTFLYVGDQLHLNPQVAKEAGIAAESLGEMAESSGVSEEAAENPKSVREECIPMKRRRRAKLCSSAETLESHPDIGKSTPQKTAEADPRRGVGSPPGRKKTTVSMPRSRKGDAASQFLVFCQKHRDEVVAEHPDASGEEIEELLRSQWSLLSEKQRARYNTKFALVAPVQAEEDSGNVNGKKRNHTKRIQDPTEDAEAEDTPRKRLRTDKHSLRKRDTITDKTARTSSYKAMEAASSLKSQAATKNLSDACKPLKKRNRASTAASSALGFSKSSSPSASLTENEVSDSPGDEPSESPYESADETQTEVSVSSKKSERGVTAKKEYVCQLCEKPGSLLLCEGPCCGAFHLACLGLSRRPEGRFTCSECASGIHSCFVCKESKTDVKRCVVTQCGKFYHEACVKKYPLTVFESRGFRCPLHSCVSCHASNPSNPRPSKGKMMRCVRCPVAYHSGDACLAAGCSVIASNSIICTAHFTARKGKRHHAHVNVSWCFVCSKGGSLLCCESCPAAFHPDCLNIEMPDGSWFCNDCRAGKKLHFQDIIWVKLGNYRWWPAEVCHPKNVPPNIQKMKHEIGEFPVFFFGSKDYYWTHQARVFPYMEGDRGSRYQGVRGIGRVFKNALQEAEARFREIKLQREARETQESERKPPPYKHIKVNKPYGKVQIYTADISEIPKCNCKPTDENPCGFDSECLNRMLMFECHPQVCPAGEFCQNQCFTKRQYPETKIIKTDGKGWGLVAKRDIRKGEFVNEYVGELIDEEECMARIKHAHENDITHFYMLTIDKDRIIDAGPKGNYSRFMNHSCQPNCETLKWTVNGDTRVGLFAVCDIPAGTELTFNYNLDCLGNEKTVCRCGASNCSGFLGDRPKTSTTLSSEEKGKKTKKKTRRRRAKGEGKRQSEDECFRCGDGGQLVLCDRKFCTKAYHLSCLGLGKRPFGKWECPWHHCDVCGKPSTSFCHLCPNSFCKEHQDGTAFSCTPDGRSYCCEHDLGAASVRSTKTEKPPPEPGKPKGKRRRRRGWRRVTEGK
Format: biochemical.

A further test relates to HeLa. In words: viability loss in HeLa cells – cell-based, 24 h, cherry-picked samples, cytotoxicity control, dose response (AID 504726).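 Note: potency for cytotoxicity as loss of luminescence signal.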 Format: functional. Conditions: Homo sapiens.
Test [17] concerns the target DNA dC->dU-editing enzyme APOBEC-3G (Homo sapiens, UniProt Q9HC16). The test is described as follows: Dose Response confirmation of small molecule APOBEC3G DNA Deaminase Inhibitors via a fluorescence-based single-stranded DNA deaminase assay. [Related pubchem assays (depositor defined):AID493012, AID493028]. Format: functional.

Activity calls are given as the source filed them. A value given as a limit tells only on which side of the number the result lay.

Neurotensin receptor type 1, sequence (P30989 whole entry): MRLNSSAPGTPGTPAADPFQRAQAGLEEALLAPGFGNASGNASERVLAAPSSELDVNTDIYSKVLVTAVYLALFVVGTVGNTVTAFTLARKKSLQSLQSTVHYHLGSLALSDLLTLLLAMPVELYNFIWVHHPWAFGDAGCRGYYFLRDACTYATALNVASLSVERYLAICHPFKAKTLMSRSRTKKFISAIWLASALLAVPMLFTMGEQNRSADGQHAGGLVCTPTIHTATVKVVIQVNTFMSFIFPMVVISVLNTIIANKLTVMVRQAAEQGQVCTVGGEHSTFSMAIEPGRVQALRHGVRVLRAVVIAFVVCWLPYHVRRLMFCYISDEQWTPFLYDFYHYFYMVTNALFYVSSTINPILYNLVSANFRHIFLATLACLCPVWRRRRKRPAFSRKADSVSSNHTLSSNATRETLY
Nonstructural protein 1, sequence (Q194T2 whole entry): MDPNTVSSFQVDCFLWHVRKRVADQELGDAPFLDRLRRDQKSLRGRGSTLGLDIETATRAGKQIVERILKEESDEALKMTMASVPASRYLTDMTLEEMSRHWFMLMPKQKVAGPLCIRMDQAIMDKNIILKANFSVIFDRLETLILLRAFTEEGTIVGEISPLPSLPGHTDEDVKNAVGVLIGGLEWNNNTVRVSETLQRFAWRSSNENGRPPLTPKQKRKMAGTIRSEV
Beta-galactosidase, sequence (Q8VNN2 whole entry): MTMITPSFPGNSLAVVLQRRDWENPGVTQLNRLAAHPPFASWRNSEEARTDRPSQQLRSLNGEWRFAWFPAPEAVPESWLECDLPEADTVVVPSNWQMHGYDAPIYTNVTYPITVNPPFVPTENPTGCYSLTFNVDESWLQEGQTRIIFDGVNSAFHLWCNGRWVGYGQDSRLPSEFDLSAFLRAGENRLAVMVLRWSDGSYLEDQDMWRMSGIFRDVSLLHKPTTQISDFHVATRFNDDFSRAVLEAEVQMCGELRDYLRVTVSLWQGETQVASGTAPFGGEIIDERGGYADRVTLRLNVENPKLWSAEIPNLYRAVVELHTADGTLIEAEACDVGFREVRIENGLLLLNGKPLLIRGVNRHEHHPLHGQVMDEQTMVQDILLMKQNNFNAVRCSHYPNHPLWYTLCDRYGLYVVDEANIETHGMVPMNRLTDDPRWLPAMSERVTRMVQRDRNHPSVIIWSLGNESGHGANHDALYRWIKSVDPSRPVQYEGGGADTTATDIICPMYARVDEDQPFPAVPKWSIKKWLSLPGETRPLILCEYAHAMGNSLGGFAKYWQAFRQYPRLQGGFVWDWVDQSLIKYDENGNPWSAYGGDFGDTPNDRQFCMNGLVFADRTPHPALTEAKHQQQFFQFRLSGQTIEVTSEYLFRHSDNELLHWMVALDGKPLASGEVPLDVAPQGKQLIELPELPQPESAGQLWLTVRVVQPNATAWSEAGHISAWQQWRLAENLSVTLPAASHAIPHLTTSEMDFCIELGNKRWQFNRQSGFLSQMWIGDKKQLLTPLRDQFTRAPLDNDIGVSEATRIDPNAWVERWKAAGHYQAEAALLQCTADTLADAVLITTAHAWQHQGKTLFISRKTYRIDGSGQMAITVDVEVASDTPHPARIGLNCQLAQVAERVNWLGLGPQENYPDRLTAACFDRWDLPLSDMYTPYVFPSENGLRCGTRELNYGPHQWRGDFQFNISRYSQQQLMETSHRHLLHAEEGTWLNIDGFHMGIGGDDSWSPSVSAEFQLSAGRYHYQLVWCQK
DNA dC->dU-editing enzyme APOBEC-3G, sequence (Q9HC16 whole entry): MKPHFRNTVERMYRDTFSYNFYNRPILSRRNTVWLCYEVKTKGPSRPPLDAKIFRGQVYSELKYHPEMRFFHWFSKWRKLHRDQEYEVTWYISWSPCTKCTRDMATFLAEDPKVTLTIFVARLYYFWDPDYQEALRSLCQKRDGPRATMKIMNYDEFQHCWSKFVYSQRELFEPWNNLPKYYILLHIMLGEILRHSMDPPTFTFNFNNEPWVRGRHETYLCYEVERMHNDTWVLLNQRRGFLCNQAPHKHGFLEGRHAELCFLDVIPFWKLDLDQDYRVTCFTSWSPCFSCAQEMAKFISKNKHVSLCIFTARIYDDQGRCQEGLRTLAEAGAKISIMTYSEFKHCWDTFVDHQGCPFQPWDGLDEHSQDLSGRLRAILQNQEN

Usually EC50 stands for the concentration needed to bring the measured effect to its halfway point. In general, IC50 refers to the concentration that gives 50% inhibition. With `COc1ccccc1OCCCOc1cccc(/C=C2\SC(=O)NC2=O)c1`, the concentration for a half-maximal effect (EC50) in the test on HEK293 [1] was 9.43 µM (active); in test [4], 9.15 µM (active). For the same compound, the IC50 in the test on HEK293 [2] is 15.7 µM (active); in the test on HEK293 [3], > 20 µM (inactive); in the test with HEK293 [5], > 20 µM (inactive); at NS3 it was 3.82 µM (active).
As usually defined, the CC50 is the concentration at which the toxic effect on the cells reaches its halfway point. `CCOC(=O)c1cc(-c2ccc(/C=C3/C(=O)N(c4ccc(C(=O)O)cc4)N=C3C)o2)ccc1Cl`: the CC50 is 24.9 µM (active) in the test on Vero [6] and > 25 µM (active) in the test with Vero [7]. Also, the results for the half-maximal inhibitory concentration (IC50) at Nonstructural protein 1 and at Genome polyprotein were 66.1 µM (active) and 21.2 µM (active), respectively. Further, the EC50 in [8] was 16 µM (active).
Broadly, the AC50 is the midpoint of the concentration-response curve, whichever way the signal moves. As for `CC(C)N1CCc2c(sc(NC(=O)c3cc(-c4cccs4)nc4ccccc34)c2C(N)=O)C1`, the AC50 in test [9] was 13.2 µM (active). Moreover, the IC50 in test [10] is > 20 µM (inactive); in [11], > 40 µM (not active). The EC50 on Beta-galactosidase is > 40 µM (inactive). In addition, the half-maximal cytotoxic concentration (CC50) in test [12] was 6.25 µM (active).
Consider `COc1ccc(C(=O)ON=C(N)c2ccccc2)cc1`, for which the AC50 in test [13] was 17.2 µM (active). In addition, the half-maximal effective concentration (EC50) in test [14] was 1.21 µM (active).
For the compound `COC(=O)/C(=C\Nc1ccc(Cl)cc1Cl)NC(=O)c1ccc(Cl)cc1Cl`, the CC50 in test [12] was > 40 µM (active).
For `CCCOc1ccc(-c2nc(SCc3ccccc3)[nH]c(=O)c2C#N)cc1OC`, the EC50 in test [15] was 4.73 µM (active). In addition, the AC50 in test [16] was > 20 µM (inactive). In addition, the IC50 on NS3 is 1.72 µM (active).
As to `CCn1c(S)nnc1-c1ccc([N+](=O)[O-])cc1`, in the test on HeLa, the half-maximal activity concentration (AC50) was 239 µM (active). Besides, the concentration for half-maximal inhibition (IC50) in [17] is 9.77 µM (active).

For the origin of these results see ChEMBL document CHEMBL1201862, “PubChem BioAssay data set” (2004).
